According to the supplement of paper PMC10307832:

How the values were obtained:
Test in all cases: relative viability (nuclei count vs DMSO), 5 days (fraction); higher = more cells survive
ABC-1 = system: ABC-1
Procedure, shortened: (§1)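 For relative viability, nuclei counts in treated wells were divided by those in vehicle wells. Lung cancer cell lines had been pin-tool dosed in 1536-well plates the day after seeding and cultured for 5 days, then fixed and stained in one step (final 0.05% Triton X-100, 1% formaldehyde, 1 ug/ml Hoechst) and imaged at 4×. Doses were one drug alone or a fixed anchor-drug dose plus five library-drug doses (not always all listed) in √10 steps, and values are duplicate-plate medians.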

Calu-6 = system: Calu-6
Procedure, shortened: as §1

NCI-H1703 = system: NCI-H1703
Procedure, shortened: as §1

NCI-H1651 = system: NCI-H1651
Procedure, shortened: as §1

EBC-1 = system: EBC-1
Procedure, shortened: as §1

NCI-H1299 = system: NCI-H1299
Procedure, shortened: as §1

COR-L23 = system: COR-L23
Procedure, shortened: as §1

IA-LM = system: IA-LM
Procedure, shortened: as §1

A549 = system: A549
Procedure, shortened: as §1

NCI-H1437 = system: NCI-H1437
Procedure, shortened: as §1

SK-MES-1 = system: SK-MES-1
Procedure, shortened: as §1

SW 1573 = system: SW 1573
Procedure, shortened: as §1

**Q.** With `Cc1sc2c(c1C)C(c1ccc(Cl)cc1)=N[C@@H](CC(=O)OC(C)(C)C)c1nnc(C)n1-2` [JQ1] + Cc1nc(NC(=O)N2CCC[C@H]2C(N)=O)sc1-c1ccnc(C(C)(C)C(F)(F)F)c1 [Alpelisib] (partner 2 µM) as the molecule, how does the relative viability (ABC-1; first compound 0.04 µM) read?
**A.** Its relative viability is 1.07.

**Q.** And the relative viability (ABC-1; first compound 0.1265 µM)?
**A.** The relative viability was 1.04.

**Q.** What about the relative viability (ABC-1; first compound 0.4 µM) of the same molecule?
**A.** Its relative viability is 0.829.

**Q.** What about the relative viability (ABC-1; first compound 1.265 µM) of the same molecule?
**A.** The relative viability was 0.424.

**Q.** What about the relative viability (ABC-1; first compound 4 µM) of the same molecule?
**A.** The relative viability was 0.465.

**Q.** And the relative viability (Calu-6; first compound 0.04 µM)?
**A.** Its relative viability is 0.955.

**Q.** And the relative viability (Calu-6; first compound 0.1265 µM)?
**A.** The relative viability was 0.815.

**Q.** What about the relative viability (Calu-6; first compound 0.4 µM) of the same molecule?
**A.** Its relative viability is 0.818.

**Q.** What about the relative viability (Calu-6; first compound 1.265 µM) of the same molecule?
**A.** Its relative viability is 0.589.

**Q.** And the relative viability (Calu-6; first compound 4 µM)?
**A.** The relative viability was 0.4.

**Q.** And the relative viability (NCI-H1703; first compound 0.04 µM)?
**A.** Its relative viability is 0.315.

**Q.** What about the relative viability (NCI-H1703; first compound 0.1265 µM) of the same molecule?
**A.** The relative viability was 0.335.

**Q.** And the relative viability (NCI-H1703; first compound 0.4 µM)?
**A.** Its relative viability is 0.297.

**Q.** And the relative viability (NCI-H1703; first compound 1.265 µM)?
**A.** The relative viability was 0.26.

**Q.** What about the relative viability (NCI-H1703; first compound 4 µM) of the same molecule?
**A.** Its relative viability is 0.321.

**Q.** What about the relative viability (NCI-H1651; first compound 0.04 µM) of the same molecule?
**A.** Its relative viability is 0.882.

**Q.** What about the relative viability (NCI-H1651; first compound 0.1265 µM) of the same molecule?
**A.** The relative viability was 0.886.

**Q.** What about the relative viability (NCI-H1651; first compound 0.4 µM) of the same molecule?
**A.** Its relative viability is 0.589.

**Q.** And the relative viability (NCI-H1651; first compound 1.265 µM)?
**A.** The relative viability was 0.462.

**Q.** And the relative viability (NCI-H1651; first compound 4 µM)?
**A.** Its relative viability is 0.411.

**Q.** What about the relative viability (EBC-1; first compound 0.04 µM) of the same molecule?
**A.** Its relative viability is 0.885.

**Q.** And the relative viability (EBC-1; first compound 0.1265 µM)?
**A.** The relative viability was 0.454.

**Q.** And the relative viability (EBC-1; first compound 0.4 µM)?
**A.** The relative viability was 0.226.

**Q.** And the relative viability (EBC-1; first compound 1.265 µM)?
**A.** Its relative viability is 0.142.

**Q.** And the relative viability (EBC-1; first compound 4 µM)?
**A.** The relative viability was 0.149.

**Q.** What about the relative viability (NCI-H1299; first compound 0.04 µM) of the same molecule?
**A.** Its relative viability is 1.02.

**Q.** What about the relative viability (NCI-H1299; first compound 0.1265 µM) of the same molecule?
**A.** Its relative viability is 0.947.

**Q.** What about the relative viability (NCI-H1299; first compound 0.4 µM) of the same molecule?
**A.** The relative viability was 0.951.

**Q.** And the relative viability (NCI-H1299; first compound 1.265 µM)?
**A.** The relative viability was 0.514.

**Q.** And the relative viability (NCI-H1299; first compound 4 µM)?
**A.** The relative viability was 0.353.

**Q.** And the relative viability (COR-L23; first compound 0.04 µM)?
**A.** Its relative viability is 0.814.

**Q.** And the relative viability (COR-L23; first compound 0.1265 µM)?
**A.** Its relative viability is 0.708.

**Q.** What about the relative viability (COR-L23; first compound 0.4 µM) of the same molecule?
**A.** The relative viability was 0.754.

**Q.** And the relative viability (COR-L23; first compound 1.265 µM)?
**A.** The relative viability was 0.36.

**Q.** And the relative viability (COR-L23; first compound 4 µM)?
**A.** Its relative viability is 0.21.

**Q.** What about the relative viability (IA-LM; first compound 0.04 µM) of the same molecule?
**A.** The relative viability was 0.772.

**Q.** What about the relative viability (IA-LM; first compound 0.1265 µM) of the same molecule?
**A.** Its relative viability is 0.324.

**Q.** And the relative viability (IA-LM; first compound 0.4 µM)?
**A.** The relative viability was 0.143.

**Q.** What about the relative viability (IA-LM; first compound 1.265 µM) of the same molecule?
**A.** The relative viability was 0.0875.

**Q.** What about the relative viability (IA-LM; first compound 4 µM) of the same molecule?
**A.** Its relative viability is 0.103.

**Q.** What about the relative viability (A549; first compound 0.04 µM) of the same molecule?
**A.** Its relative viability is 0.785.

**Q.** And the relative viability (A549; first compound 0.1265 µM)?
**A.** Its relative viability is 0.644.

**Q.** And the relative viability (A549; first compound 0.4 µM)?
**A.** The relative viability was 0.509.

**Q.** And the relative viability (A549; first compound 1.265 µM)?
**A.** Its relative viability is 0.401.

**Q.** What about the relative viability (A549; first compound 4 µM) of the same molecule?
**A.** The relative viability was 0.262.

**Q.** And the relative viability (NCI-H1437; first compound 0.04 µM)?
**A.** The relative viability was 0.871.

**Q.** And the relative viability (NCI-H1437; first compound 0.1265 µM)?
**A.** Its relative viability is 0.803.

**Q.** What about the relative viability (NCI-H1437; first compound 0.4 µM) of the same molecule?
**A.** The relative viability was 0.515.

**Q.** And the relative viability (NCI-H1437; first compound 1.265 µM)?
**A.** The relative viability was 0.284.

**Q.** And the relative viability (NCI-H1437; first compound 4 µM)?
**A.** The relative viability was 0.216.

**Q.** What about the relative viability (SK-MES-1; first compound 0.04 µM) of the same molecule?
**A.** Its relative viability is 0.769.

**Q.** And the relative viability (SK-MES-1; first compound 0.1265 µM)?
**A.** The relative viability was 0.68.

**Q.** What about the relative viability (SK-MES-1; first compound 0.4 µM) of the same molecule?
**A.** Its relative viability is 0.733.

**Q.** What about the relative viability (SK-MES-1; first compound 1.265 µM) of the same molecule?
**A.** The relative viability was 0.456.

**Q.** And the relative viability (SK-MES-1; first compound 4 µM)?
**A.** The relative viability was 0.27.

**Q.** What about the relative viability (SW 1573; first compound 0.04 µM) of the same molecule?
**A.** Its relative viability is 0.808.

**Q.** What about the relative viability (SW 1573; first compound 0.1265 µM) of the same molecule?
**A.** The relative viability was 0.702.

**Q.** And the relative viability (SW 1573; first compound 0.4 µM)?
**A.** Its relative viability is 0.714.

**Q.** What about the relative viability (SW 1573; first compound 1.265 µM) of the same molecule?
**A.** The relative viability was 0.439.

**Q.** What about the relative viability (SW 1573; first compound 4 µM) of the same molecule?
**A.** The relative viability was 0.383.

**Q.** Which results are given for `Nc1ccn([C@@H]2O[C@H](CO)[C@@H](O)[C@@H]2O)c(=O)n1` [Cytarabine] + C[C@]1(O)C[C@@H](c2nc(-c3ccc4ccc(-c5ccccc5)nc4c3)c3c(N)nccn32)C1 [Linsitinib] (partner 1 µM)?
**A.** relative viability (ABC-1; first compound 0.005 µM): 0.699; relative viability (ABC-1; first compound 0.01581 µM): 0.99; relative viability (ABC-1; first compound 0.05 µM): 0.909; relative viability (ABC-1; first compound 0.1581 µM): 0.71; relative viability (ABC-1; first compound 0.5 µM): 0.487; relative viability (Calu-6; first compound 0.005 µM): 0.928; relative viability (Calu-6; first compound 0.01581 µM): 0.871; relative viability (Calu-6; first compound 0.05 µM): 0.734; relative viability (Calu-6; first compound 0.1581 µM): 0.444; relative viability (Calu-6; first compound 0.5 µM): 0.283; relative viability (NCI-H1703; first compound 0.005 µM): 0.339; relative viability (NCI-H1703; first compound 0.01581 µM): 0.346; relative viability (NCI-H1703; first compound 0.05 µM): 0.166; relative viability (NCI-H1703; first compound 0.1581 µM): 0.107; relative viability (NCI-H1703; first compound 0.5 µM): 0.0904; relative viability (NCI-H1651; first compound 0.005 µM): 0.916; relative viability (NCI-H1651; first compound 0.01581 µM): 0.98; relative viability (NCI-H1651; first compound 0.05 µM): 1.11; relative viability (NCI-H1651; first compound 0.1581 µM): 0.468; relative viability (NCI-H1651; first compound 0.5 µM): 0.327; relative viability (EBC-1; first compound 0.005 µM): 0.742; relative viability (EBC-1; first compound 0.01581 µM): 0.815; relative viability (EBC-1; first compound 0.05 µM): 0.614; relative viability (EBC-1; first compound 0.1581 µM): 0.461; relative viability (EBC-1; first compound 0.5 µM): 0.296; relative viability (NCI-H1299; first compound 0.005 µM): 0.928; relative viability (NCI-H1299; first compound 0.01581 µM): 1.07; relative viability (NCI-H1299; first compound 0.05 µM): 1; relative viability (NCI-H1299; first compound 0.1581 µM): 1.05; relative viability (NCI-H1299; first compound 0.5 µM): 0.886; relative viability (COR-L23; first compound 0.005 µM): 0.787; relative viability (COR-L23; first compound 0.01581 µM): 0.806; relative viability (COR-L23; first compound 0.05 µM): 0.552; relative viability (COR-L23; first compound 0.1581 µM): 0.159; relative viability (COR-L23; first compound 0.5 µM): 0.122; relative viability (IA-LM; first compound 0.005 µM): 0.326; relative viability (IA-LM; first compound 0.01581 µM): 0.763; relative viability (IA-LM; first compound 0.05 µM): 0.357; relative viability (IA-LM; first compound 0.1581 µM): 0.243; relative viability (IA-LM; first compound 0.5 µM): 0.201; relative viability (A549; first compound 0.005 µM): 0.579; relative viability (A549; first compound 0.01581 µM): 0.499; relative viability (A549; first compound 0.05 µM): 0.407; relative viability (A549; first compound 0.1581 µM): 0.0819; relative viability (A549; first compound 0.5 µM): 0.0375; relative viability (NCI-H1437; first compound 0.005 µM): 0.746; relative viability (NCI-H1437; first compound 0.01581 µM): 0.678; relative viability (NCI-H1437; first compound 0.05 µM): 0.477; relative viability (NCI-H1437; first compound 0.1581 µM): 0.19; relative viability (NCI-H1437; first compound 0.5 µM): 0.147; relative viability (SK-MES-1; first compound 0.005 µM): 0.905; relative viability (SK-MES-1; first compound 0.01581 µM): 0.82; relative viability (SK-MES-1; first compound 0.05 µM): 0.368; relative viability (SK-MES-1; first compound 0.1581 µM): 0.252; relative viability (SK-MES-1; first compound 0.5 µM): 0.255; relative viability (SW 1573; first compound 0.005 µM): 0.831; relative viability (SW 1573; first compound 0.01581 µM): 0.664; relative viability (SW 1573; first compound 0.05 µM): 0.621; relative viability (SW 1573; first compound 0.1581 µM): 0.369; relative viability (SW 1573; first compound 0.5 µM): 0.149
